Literature values, collected in patent US20080124400A1, “Microparticles With High Loadings Of A Bioactive Agent” (Angiotech International AG, priority 2004, published 2008).

Experiments:
[1] = system: normal chondrocytes and non-proliferating synoviocytes
[2] = system: collagen induced arthritis; conditions: animal model

SMILES: CC(=O)O[C@H]1C(=O)[C@@]2(C)[C@H]([C@H](OC(=O)c3ccccc3)[C@]3(O)C[C@H](OC(=O)[C@H](O)[C@@H](NC(=O)c4ccccc4)c4ccccc4)C(C)=C1C3(C)C)[C@]1(OC(C)=O)CO[C@@H]1C[C@@H]2O [Paclitaxel, paclitaxel]
- AP-1 transcription activity (AP-1): inhibits AP-1 transcription activity
- neutrophil activation (neutrophil): inhibits neutrophil activation
- toxicity to non-proliferating cells [1]: non-toxic
- collagen induced arthritis [2]: inhibits collagen induced arthritis
- proliferation and apoptosis of synoviocytes (synoviocytes): prevents the proliferation of and induces apoptosis in synoviocytes
- T-cell response to stimuli and T-cell function (T-cell): decreases T-cell response to stimuli, and inhibits T-cell function
